The values below come from article PMC7176092, “Development of the first in vivo GPR17 ligand through an iterative drug discovery pipeline: A novel disease-modifying strategy for multiple sclerosis” (PLoS ONE, 2020).

The nature of data set [1]: Single dose time course study in plasma and brain, 10 mg/kg subcutaneous. To be noted: 10 mg/kg s.c. single dose, C57BL/6 male mice. In kind it is in vivo, mouse. As for the experimental part: Afterwards, the presence of the top compound in the brain was assessed in a single dose time course study consisting of a subcutaneous administration of a 10 mg/kg dose (15% Ethanol, 85% PEG400) to 24 naïve C57BL/6 male mice. Eight time-points (n = 3/time-point) were drawn over 24 hours after dosing. Each animal was sampled for blood collection at two time-points (the first via a tail vein, the second via cardiac puncture under anaesthesia). Blood samples were collected and centrifuged to prepare plasma according to standard procedures and stored at approximately -20°C, pending analysis (n = 48 samples). The brain of each animal was collected at sacrifice and analysed alongside plasma samples for compound quantification (n = 24 samples). Plasma and brain homogenate samples were analysed for test compound quantification using an optimised method based on protein precipitation followed by HPLC-MS/MS analysis. The results for test substance in plasma and brain homogenates were subjected to non-compartmental PK analysis using WinNonlin Phoenix v.6.3 for generation of appropriate pharmacokinetic parameters to be reported along with graphical representation of the mean plasma concentration profiles over time.

Another data set deals with T1, ADR1D (Homo sapiens, UniProt P25100).
T1 construct: Eurofins Cerep (external service)
T1 sequence (P25100 1-572): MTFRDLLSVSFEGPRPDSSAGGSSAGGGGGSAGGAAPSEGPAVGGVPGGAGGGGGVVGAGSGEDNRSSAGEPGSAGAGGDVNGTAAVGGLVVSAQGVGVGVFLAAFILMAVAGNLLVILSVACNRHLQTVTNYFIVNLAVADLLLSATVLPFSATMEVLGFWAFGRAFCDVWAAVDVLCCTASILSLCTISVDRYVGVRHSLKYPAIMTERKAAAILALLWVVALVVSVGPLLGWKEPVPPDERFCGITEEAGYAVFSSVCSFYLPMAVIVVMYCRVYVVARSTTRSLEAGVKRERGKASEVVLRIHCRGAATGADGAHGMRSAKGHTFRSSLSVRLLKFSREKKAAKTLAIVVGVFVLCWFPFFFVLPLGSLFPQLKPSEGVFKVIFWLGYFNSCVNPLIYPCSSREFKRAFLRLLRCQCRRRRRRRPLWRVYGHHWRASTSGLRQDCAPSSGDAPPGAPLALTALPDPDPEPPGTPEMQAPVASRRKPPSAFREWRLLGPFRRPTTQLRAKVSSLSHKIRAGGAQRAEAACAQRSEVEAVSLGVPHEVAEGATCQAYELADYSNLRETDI
Kind of data set: Binding assay ADR1D. The following applies: 100 nM.

Values joined by “and” are separate entries in the source; they are usually repeats but may differ in a detail not shown here. Equal values may be shown once.

What is called AUC(0-t) is exposure summed from dosing to a finite time, without extrapolation to infinity. High values mean high exposure, low ones low exposure. In general, Cmax refers to the highest concentration seen after dosing. Broadly, the Tmax is the time from dosing to the highest level. A word on the inhibition: it is the change of the read-out against control, counted positive when it falls. For the molecule `Cc1ccc(-c2nnc(SCC(=O)Nc3nccs3)[nH]2)cc1` [Compound 9], the Tlast in data set [1] (brain) was determined as 6.00 h; in data set [1] (plasma), 8.00 h. Also, the AUC(0-t) in data set [1] (mouse, sc, brain) turned out to be 205 ng·h/mL; in data set [1] (mouse, sc, plasma), 3930 ng·h/mL. Moreover, the Cmax in data set [1] (mouse, sc, brain) is 270 ng/mL; in data set [1] (mouse, sc, plasma), 6520 ng/mL. Also, the Tmax was 15 min in data set [1] (mouse, sc, brain) and 15 min in data set [1] (mouse, sc, plasma). The concentration at 6 h in data set [1] (mouse, sc, brain, read-out: Clast) was 5.8 ng/mL. For the same molecule, the concentration at 8 h in data set [1] (mouse, sc, plasma, read-out: Clast) was found to be 17.4 ng/mL. Besides, the remaining activity at 0.1 µM at ADR1D (mean of 2, read-out: % Of control specific binding, Mean) worked out at 101%. In addition, the inhibition at 0.1 µM on ADR1D (read-out: % Inhibition of control specific binding) was -1%. For the same molecule, the “% Of control specific binding” value at ADR1D (single replicates 1 and 2, 0.1 µM) is 90.2% and 111.5%.
